Assay [1] addresses recombinant human CB1 receptor expressed in CHO cells (Homo sapiens, UniProt P21554). The experiment in a line: Cannabinoid Receptor-1 (CB1) Functional Activity Assay (intracellular cAMP, forskolin-stimulated CB1-CHO cells). Type of assay: cell-based. As to conditions: for EC50: cAMP level in CB1-CHO cells with forskolin; for functional mode at CB1 receptor in the CB1 functional activity assay: cAMP readout in CB1-CHO cells. As to the method:
The functional activation of CB1 receptor is based on recombinant human CB1 receptor expressed in CHO cells (Felder et al, Mol. Pharmacol. 48: 443-450, 1995). To determine the agonist activity or inverse agonist activity of any test compound, 50 ul of CB1-CHO cell suspension are mixed with test compound and 70 ul assay buffer containing 0.34 mM 3-isobutyl-1-methylxanthine and 5.1 uM of forskolin in 96-well plates. The assay buffer is comprised of Earle's Balanced Salt Solution supplemented with 5 mM MgCl2, 1 mM glutamine, 10 mM HEPES, and 1 mg/mL bovine serum albumin. The mixture is incubated at room temperature for 30 minutes, and terminated by adding 30 ul/well of 0.5M HCl. The total intracellular cAMP level is quantitated using the New England Nuclear Flashplate and cAMP radioimmunoassay kit.
To determine the antagonist activity of test compound, the reaction mixture also contains 0.5 nM of the agonist CP55940 (or 50 nM of methanandamide), and the reversal of the CP55940 (or methanandamide) effect is quantitated with increasing concentration of the test compound. Intracellular cAMP is determined as described above. An IC50 value for the test compound is calculated from the titration curve.
Background: Cyclic AMP is a second messenger, typically raised through Gs and lowered through Gi signalling.

Assay [2] addresses recombinant human CB1 receptor (Homo sapiens, UniProt P21554). Put plainly: Cannabinoid Receptor-1 (CB1) Binding Assay ([3H]CP-55940 displacement). Particulars: recombinant human CB1 receptor in CHO cell membranes, 0.6 nM [3H]CP-55940. As to the method:
Binding affinity determination is based on recombinant human CB1 receptor expressed in Chinese Hamster Ovary (CHO) cells (Felder et al, Mol. Pharmacol. 48: 443-450, 1995). Total assay volume is 250 μl (240 μl CB1 receptor membrane solution plus 5 μl test compound solution plus 5 μl [3H]CP-55940 solution). Final concentration of [3H]CP-55940 is 0.6 nM. Binding buffer contains 50 mM Tris-HCl, pH7.4, 2.5 mM EDTA, 5 mM MgCl2, 0.5 mg/mL fatty acid free bovine serum albumin and protease inhibitors (Cat#P8340, from Sigma). To initiate the binding reaction, 5 μl of radioligand solution is added, the mixture is incubated with gentle shaking on a shaker for 1.5 h at 30° C. The binding is terminated by using 96-well harvester and filtering through GF/C filter presoaked in 0.05% polyethylenimine. The bound radiolabel is quantitated using scintillation counter. Apparent binding affinities for various compounds are calculated from IC50 values (DeBlasi et al., Trends Pharmacol Sci 10: 227-229, 1989).

Molecules are shown by their SMILES.

recombinant human CB1 receptor, sequence (P21554 whole entry): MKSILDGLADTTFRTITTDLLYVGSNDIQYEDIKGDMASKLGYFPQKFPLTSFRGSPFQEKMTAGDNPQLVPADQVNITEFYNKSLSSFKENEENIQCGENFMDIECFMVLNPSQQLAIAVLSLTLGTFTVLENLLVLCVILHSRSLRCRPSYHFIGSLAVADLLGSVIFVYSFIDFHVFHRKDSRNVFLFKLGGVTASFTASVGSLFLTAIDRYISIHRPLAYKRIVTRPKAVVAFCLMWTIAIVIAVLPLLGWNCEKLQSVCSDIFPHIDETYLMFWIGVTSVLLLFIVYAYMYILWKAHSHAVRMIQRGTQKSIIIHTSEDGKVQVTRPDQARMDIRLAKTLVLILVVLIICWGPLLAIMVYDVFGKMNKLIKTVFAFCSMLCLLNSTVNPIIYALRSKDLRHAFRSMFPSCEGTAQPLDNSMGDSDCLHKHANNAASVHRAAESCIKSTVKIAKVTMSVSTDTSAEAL
recombinant human CB1 receptor expressed in CHO cells, sequence (P21554 whole entry): as above

Take `CC(C)(C)c1nc2nc(-c3ccccc3Cl)c(-c3ccc(Cl)cc3)cc2c2n[nH]c(=O)n12` [Example 1, 5-Tert-butyl-8-(2-chlorophenyl)-9-(4-chlorophenyl)pyrido[3,2-e][1,2,4]triazolo[4,3-c]pyrimidin-3(2H)-one]: in assay [1], the EC50 was less than 100 nM and the “functional mode at CB1 receptor in the CB1 functional activity assay” value (from here on “functional mode at CB1 receptor”) was “functional inverse agonists”. The IC50 in assay [2] amounted to 2 nM.
For `CC(=O)c1ccc(-c2cc3c(nc2-c2ccccc2Cl)nc(C(C)(C)C)n2c(=O)[nH]nc32)cc1` [Example 9, 9-(4-Acetylphenyl)-5-tert-butyl-8-(2-chlorophenyl)pyrido[3,2-e][1,2,4]triazolo[4,3-c]pyrimidin-3(2H)-one], in assay [1], the EC50 was less than 100 nM and the “functional mode at CB1 receptor” value is “functional inverse agonists”. Besides, the IC50 in assay [2] stood at 10 nM.
Turning to `CC(C)(C)c1nc2nc(-c3ccccc3Cl)c(-c3ccc(C#N)cc3)cc2c2n[nH]c(=O)n12` [Example 16, 4-[5-Tert-butyl-8-(2-chlorophenyl)-3-oxo-2,3-dihydropyrido[3,2-e][1,2,4]triazolo[4,3-c]pyrimidin-9-yl]benzonitrile], in assay [1], the concentration for a half-maximal effect (EC50) was less than 100 nM and the “functional mode at CB1 receptor” value is given as “functional inverse agonists”. Moreover, the IC50 in assay [2] came to 6 nM.
For the molecule `CC(C)(C)c1nc2nc(-c3ccccc3-c3ccc(F)cc3)c(-c3ccc(F)cc3)cc2c2n[nH]c(=O)n12` [Example 27, 5-Tert-butyl-8-(4′-fluorobiphenyl-2-yl)-9-(4-fluorophenyl)pyrido[3,2-e][1,2,4]triazolo[4,3-c]pyrimidin-3(2H)-one], in assay [1], the EC50 was less than 100 nM and the “functional mode at CB1 receptor” value is listed as “functional inverse agonists”. The IC50 in assay [2] turned out to be 6 nM.
The matching figures for `CC(C)(C)c1nc2nc(-c3ccc(C#N)cc3Cl)c(-c3ccc(Cl)cc3)cc2c2n[nH]c(=O)n12` [Example 28, 4-[5-Tert-butyl-9-(4-chlorophenyl)-3-oxo-2,3-dihydropyrido[3,2-e][1,2,4]triazolo[4,3-c]pyrimidin-8-yl]-3-chlorobenzonitrile]: less than 100 nM, “functional inverse agonists” and 1 nM.
`CC(C)(C)c1nc2nc(-c3ccc(C#N)cc3C#N)c(-c3ccc(Cl)cc3)cc2c2n[nH]c(=O)n12` [Example 31, 4-[5-Tert-butyl-9-(4-chlorophenyl)-3-oxo-2,3-dihydropyrido[3,2-e][1,2,4]triazolo[4,3-c]pyrimidin-8-yl]isophthalonitrile]: in assay [1], the EC50 was less than 100 nM and the “functional mode at CB1 receptor” value is listed as “functional inverse agonists”. Also, the IC50 in assay [2] came to 4 nM.
The matching figures for `CC(C)(C)c1nc2nc(-c3ccccc3Cl)c(-c3ccc(-c4ncon4)cc3)cc2c2n[nH]c(=O)n12` [Example 32, 5-Tert-butyl-8-(2-chlorophenyl)-9-[4-(1,2,4-oxadiazol-3-yl)phenyl]pyrido[3,2-e][1,2,4]-triazolo[4,3-c]pyrimidin-3(2H)-one]: less than 100 nM, “functional inverse agonists” and 11 nM.

One may read the EC50 as the concentration needed to bring the measured effect to its halfway point. The IC50 is the concentration at which inhibition is half-maximal.
